Measurements taken from patent US20220226219A1, “ANTIMICROBIAL COMPOSITIONS” (Conopco, Inc., d/b/a UNILEVER, priority 2019, published 2022).

Tested on: Gram negative fermenting bacteria; Enterobacter gergoviae and Klebsiella species
Experiment: Liquid broth MIC assay of individual chemicals
Format: cell-based
Conditions: tryptic soy broth, 30° C., 24 hours, OD600, MIC = concentration at which <25% growth vs positive growth control
Experimental: Liquid broth assays (MIC and checkerboard) were conducted to identify the minimum concentration(s) of individual and tertiary antimicrobial chemicals. A modified methodology to ISO 20776-1:2006 was utilized for the screening as follows. Stock solutions of antimicrobial chemicals and tryptic soy broth were inoculated with 1-5×10^6 microorganism mixture of Gram negative fermenting bacteria; Enterobacter gergoviae and Klebsiella species.
Samples were incubated at 30° C. for 24 hours, after which optical densities at OD600 nm were measured.

| MIC [wt %] | Compound |
| --- | --- |
| 2 | CC(=O)OCc1ccccc1 [Benzyl Acetate] |
| 2 | CCCC(=O)OCC [Ethyl Butyrate] |
| 2 | CC(C)=CCC/C(C)=C/CO [Geraniol Natural, Geraniol] |
| 2 | CC(=O)OC/C=C(\C)CCC=C(C)C [Geranyl Acetate] |
| 2 | CCCCCCOC(C)=O [Hexyl acetate] |
| 0.063 | Cc1cc(CC(C)CC(C)(C)C)n(O)c(=O)c1.NCCO (stereo not shown) [Octopirox, piroctone olamine, reference compound] |

The next lines start with the compound.

| Compound | MIC [wt %] |
| --- | --- |
| CC(C)=CCCC(C)CCO (stereo not shown) [Citroneol] | 2 |
| CC12CCC(CC1)C(C)(C)O2 [Eucalyptol] | 2 |
| C=CCc1ccc(O)c(OC)c1 [Eugenol] | 0.063 |
| CCCCCCCC1CCC(=O)O1 (stereo not shown) [Gamma Undecalactone] | 2 |
| C=C(C)[C@H]1CC=C(C)CC1 [Limonene] | 2 |
| CC1CCC(C(C)C)C(O)C1 (stereo not shown) [Menthol] | 2 |
| OCCc1ccccc1 [Phenethyl Alcohol] | 0.5 |
| O=C([O-])c1ccccc1.[Na+] [Sodium benzoate] | 0.5 |
| CC1=CC[C@@H](C(C)(C)O)CC1 [Terponeol] | 0.125 |
| C=C(CC(=O)O)C(=O)O [ltaconic Acid] | 0.5 |
